Measurements taken from patent publication US4201774A, “Novel aminoglycoside derivatives” (Shionogi & Co., Ltd., priority 1977, dated 1980).
In brackets after ≈: the same amount, converted by molar mass.

Experiments:
Escherichia coli EC-148 = assay: MIC, Escherichia coli EC-148*; conditions: EC148, read-out: minimum inhibitory concentration (MIC)
[1] = tested on: Citrobactor freundii Ct-52; assay: MIC, Citrobactor freundii Ct-52*; conditions: read-out: minimum inhibitory concentration (MIC)
Escherichia coli EC-147 = assay: MIC, Escherichia coli EC-147*; conditions: EC147, read-out: minimum inhibitory concentration (MIC)
[2] = tested on: Escherichia coli W-677/JR 214; assay: MIC, Escherichia coli W-677/JR 214*; conditions: W677/JR214, read-out: minimum inhibitory concentration (MIC)
[3] = tested on: Pseudomonas aeruginosa PP-6; assay: MIC, Pseudomonas aeruginosa PP-6*; conditions: PP6, read-out: minimum inhibitory concentration (MIC)
[4] = tested on: Klebsiella pneumoniae Kl-187; assay: MIC, Klebsiella pneumoniae Kl-187*; conditions: KL187, read-out: minimum inhibitory concentration (MIC)
[5] = tested on: Enterobacter cloacae Cl-126; assay: MIC, Enterobacter cloacae Cl-126*; conditions: CL126, read-out: minimum inhibitory concentration (MIC)
[6] = tested on: Escherichia coli W-677/JR 225; assay: MIC, Escherichia coli W-677/JR 225*; conditions: W677/JR225, read-out: minimum inhibitory concentration (MIC)
[7] = tested on: Staphylococus epidermidis TB-302; assay: MIC, Staphylococus epidermidis TB-302; assay type: cell-based; conditions: read-out: minimum inhibitory concentration (MIC)
[8] = tested on: Escherichia coli W-677/JR-762; assay: MIC, Escherichia coli W-677/JR-762*; conditions: W677/JR762, read-out: minimum inhibitory concentration (MIC)
Proteus inconstans In-43 = assay: MIC, Proteus inconstans In-43*; assay type: cell-based; conditions: Providencia alcalifaciens, IN43; Proteus inconstans In-43, tobramycin resistant strain; read-out: minimum inhibitory concentration (MIC)
Seratia marcescens MA-81 = assay: MIC, Seratia marcescens MA-81*; assay type: cell-based; conditions: Seratia marcescens MA-81, tobramycin resistant strain; read-out: minimum inhibitory concentration (MIC)
[9] = tested on: Staphylococcus aureus S-25; assay: MIC, Staphylococcus aureus S-25*; conditions: S25, read-out: minimum inhibitory concentration (MIC)

Compound: NC[C@H]1O[C@H](O[C@H]2[C@H](O)[C@@H](O[C@H]3O[C@H](CO)[C@@H](O)[C@H](N)[C@H]3O)[C@H](NCC3(O)CNC3)C[C@@H]2N)[C@H](N)C[C@@H]1O [Test compound (1), 1-N-[(3-hydroxyazetidin-3-yl)methyl]tobramycin]
- MIC (Escherichia coli EC-148): 3.13 µg/mL (≈ 5.66 µM)
- MIC [1]: 0.78 µg/mL (≈ 1.41 µM)
- MIC (Escherichia coli EC-147): 3.13 µg/mL (≈ 5.66 µM)
- MIC [2]: 1.56 µg/mL (≈ 2.82 µM)
- MIC [3]: 0.78 µg/mL (≈ 1.41 µM)
- MIC [4]: 0.78 µg/mL (≈ 1.41 µM)
- MIC [5]: 0.78 µg/mL (≈ 1.41 µM)
- MIC [6]: 1.56 µg/mL (≈ 2.82 µM)
- MIC [7]: 3.13 µg/mL (≈ 5.66 µM)
- MIC [8]: 3.13 µg/mL (≈ 5.66 µM)
- MIC (Proteus inconstans In-43): 6.25 µg/mL (≈ 11.3 µM)
- MIC (Seratia marcescens MA-81): 12.5 µg/mL (≈ 22.6 µM)
- MIC [9]: 50 µg/mL (≈ 90.5 µM)

Compound: NC[C@H]1O[C@H](O[C@H]2[C@H](O)[C@@H](O[C@H]3O[C@H](CO)[C@@H](O)[C@H](N)[C@H]3O)[C@H](NCC3(O)CCNC3)C[C@@H]2N)[C@H](N)C[C@@H]1O (some centres unmarked) [Test compound (2), 1-N-[(3-hydroxypyrrolidin-3-yl)methyl]tobramycin]
- MIC (Escherichia coli EC-148): 3.13 µg/mL (≈ 5.52 µM)
- MIC [1]: 0.78 µg/mL (≈ 1.38 µM)
- MIC (Escherichia coli EC-147): 3.13 µg/mL (≈ 5.52 µM)
- MIC [2]: 1.56 µg/mL (≈ 2.75 µM)
- MIC [3]: 0.78 µg/mL (≈ 1.38 µM)
- MIC [4]: 0.39 µg/mL (≈ 0.688 µM)
- MIC [5]: 0.78 µg/mL (≈ 1.38 µM)
- MIC [6]: 0.78 µg/mL (≈ 1.38 µM)
- MIC [7]: 1.56 µg/mL (≈ 2.75 µM)
- MIC [8]: 3.13 µg/mL (≈ 5.52 µM)
- MIC (Proteus inconstans In-43): 12.5 µg/mL (≈ 22.1 µM)
- MIC (Seratia marcescens MA-81): 12.5 µg/mL (≈ 22.1 µM)
- MIC [9]: 25 µg/mL (≈ 44.1 µM)

Compound: NC[C@H]1O[C@H](O[C@H]2[C@H](O)[C@@H](O[C@H]3O[C@H](CO)[C@@H](O)[C@H](N)[C@H]3O)[C@H](NCC3(O)CNC3)C[C@@H]2N)[C@H](O)[C@@H](O)[C@@H]1O [Test compound (3), 1-N-[(3-hydroxyazetidin-3-yl)methyl]kanamycin A]
- MIC (Escherichia coli EC-148): 12.5 µg/mL (≈ 21.9 µM)
- MIC [1]: 3.13 µg/mL (≈ 5.49 µM)
- MIC (Escherichia coli EC-147): 6.25 µg/mL (≈ 11 µM)
- MIC [2]: 6.25 µg/mL (≈ 11 µM)
- MIC [3]: 3.13 µg/mL (≈ 5.49 µM)
- MIC [4]: 1.56 µg/mL (≈ 2.74 µM)
- MIC [5]: 1.56 µg/mL (≈ 2.74 µM)
- MIC [6]: 3.13 µg/mL (≈ 5.49 µM)
- MIC [7]: 3.13 µg/mL (≈ 5.49 µM)
- MIC [8]: 12.5 µg/mL (≈ 21.9 µM)
- MIC (Proteus inconstans In-43): 3.13 µg/mL (≈ 5.49 µM)
- MIC (Seratia marcescens MA-81): 12.5 µg/mL (≈ 21.9 µM)
- MIC [9]: 25 µg/mL (≈ 43.9 µM)

Compound: NC[C@H]1O[C@H](O[C@H]2[C@H](O)[C@@H](O[C@H]3O[C@H](CO)[C@@H](O)[C@H](N)[C@H]3O)[C@H](NCC3(O)CCNC3)C[C@@H]2N)[C@H](O)[C@@H](O)[C@@H]1O (some centres unmarked) [Test compound (4), 1-N-[(3-hydroxypyrrolidin-3-yl)methyl]kanamycin A]
- MIC (Escherichia coli EC-148): 6.25 µg/mL (≈ 10.7 µM)
- MIC [1]: 1.56 µg/mL (≈ 2.67 µM)
- MIC (Escherichia coli EC-147): 6.25 µg/mL (≈ 10.7 µM)
- MIC [2]: 3.13 µg/mL (≈ 5.36 µM)
- MIC [3]: 3.13 µg/mL (≈ 5.36 µM)
- MIC [4]: 1.56 µg/mL (≈ 2.67 µM)
- MIC [5]: 1.56 µg/mL (≈ 2.67 µM)
- MIC [6]: 3.13 µg/mL (≈ 5.36 µM)
- MIC [7]: 1.56 µg/mL (≈ 2.67 µM)
- MIC [8]: 12.5 µg/mL (≈ 21.4 µM)
- MIC (Proteus inconstans In-43): 3.13 µg/mL (≈ 5.36 µM)
- MIC (Seratia marcescens MA-81): 12.5 µg/mL (≈ 21.4 µM)
- MIC [9]: 12.5 µg/mL (≈ 21.4 µM)

Compound: NC[C@H]1O[C@H](O[C@H]2[C@H](O)[C@@H](O[C@H]3O[C@H](CO)[C@@H](O)[C@H](N)[C@H]3O)[C@H](N)C[C@@H]2N)[C@H](N)C[C@@H]1O [Test compound (5), tobramycin, reference compound]
- MIC (Escherichia coli EC-148): 100 µg/mL (≈ 214 µM)
- MIC [1]: 25 µg/mL (≈ 53.5 µM)
- MIC (Escherichia coli EC-147): 50 µg/mL (≈ 107 µM)
- MIC [2]: 100 µg/mL (≈ 214 µM)
- MIC [3]: 50 µg/mL (≈ 107 µM)
- MIC [4]: 25 µg/mL (≈ 53.5 µM)
- MIC [5]: 25 µg/mL (≈ 53.5 µM)
- MIC [6]: 50 µg/mL (≈ 107 µM)
- MIC [7]: 3.13 µg/mL (≈ 6.69 µM)
- MIC [8]: > 100 µg/mL
- MIC (Proteus inconstans In-43): 6.25 µg/mL (≈ 13.4 µM)
- MIC (Seratia marcescens MA-81): > 100 µg/mL
- MIC [9]: 100 µg/mL (≈ 214 µM)
